Results: the RepoRT retention time repository

Experiment: Waters ACQUITY UPLC BEH C18, 100 × 2.1 mm, 1.7 µm, 40 °C, 0.3 to 0.4 mL/min, estimated dead time 0.63 min; A: water + 0.1% formic acid; B: methanol + 0.1% formic acid; gradient (min/%B) 0/0.5 0.1/0.5 10/80 10.1/99.5 12/99.5
Details: stereoisomer not certain

SMILES | LC retention time [min]
CC(C)(CO)C(O)C(=O)NCCC(=O)O (stereo not given) | 2.48
O=c1cc[nH]c2ccccc12 | 2.93
CC1CCC2C(C)C3C(CC4C5CC=C6CC(OC7OC(CO)C(O)C(OC8OC(CO)C(O)C(O)C8O)C7OC7OC(C)C(O)C(O)C7O)CCC6(C)C5CCC43C)N2C1 (stereo not given) | 4.95
COc1cc(CC(=O)O)ccc1O | 3.84
CCCCCCC(O)CC=CCCCCCCCC(=O)O (stereo not given) | 10.1
CC(C)=CCCC(C)(O)C1CCC2(C)C1C(O)CC1C3(C)CCC(OC4OC(CO)C(O)C(O)C4O)C(C)(C)C3CCC12C (stereo not given) | 9.84
CC(C)CC(N)C(=O)NC(C)C(=O)O (stereo not given) | 2.02
CC1CCC2(OC1)OC1C(O)C3C4CCC5CC(OC6OC(CO)C(OC7OC(CO)C(O)C(OC8OCC(O)C(O)C8O)C7OC7OC(CO)C(O)C(OC8OC(CO)C(O)C(O)C8O)C7O)C(O)C6O)C(O)CC5(C)C4CCC3(C)C1C2C (stereo not given) | 6.99
CC1CNC2C(C)C3C(CC4C5CCC6CC(OC7OC(CO)C(OC8OC(CO)C(O)C(OC9OCC(O)C(O)C9O)C8OC8OC(CO)C(O)C(O)C8O)C(O)C7O)CCC6(C)C5CCC43C)OC2(O)C1 (stereo not given) | 4.02
COc1cc(C=CC(=O)OC2CC(O)(C(=O)O)CC(O)C2O)ccc1O (stereo not given) | 3.71
CC(O)(CC(=O)O)CC(=O)OCC1OC(Oc2c(-c3ccc(O)cc3)oc3cc(OC4OC(CO)C(O)C(O)C4O)cc(O)c3c2=O)C(O)C(O)C1O (stereo not given) | 3.34
CC1CCC2C(C)C3C(CC4C5C(=O)C=C6CC(OC7OC(CO)C(OC8OC(C)C(O)C(O)C8O)C(O)C7OC7OC(C)C(O)C(O)C7O)CCC6(C)C5CCC43C)N2C1 (stereo not given) | 4.52
O=C(O)CC(=O)OCC1OC(Oc2c(-c3ccc(O)c(O)c3)oc3cc(O)cc(O)c3c2=O)C(O)C(O)C1O (stereo not given) | 4.22
C=CC1c2cc3n(c(=O)c2C2OC1OC1OC(CO)C(O)C(O)C1O2)CCc1c-3[nH]c2ccccc12 (stereo not given) | 5.46
CCC=CCC=CC=CC(CCCCCCCC(=O)O)OO (stereo not given) | 6.77
O=C1CC(c2ccc(O)c(O)c2)Oc2c1c(OC1OC(CO)C(O)C(O)C1O)cc(O)c2C1OCC(O)C(O)C1O (stereo not given) | 3.22
CC1OC(OC2C(OC3C(OC4CCC5(C)C(CCC6(C)C5CC=C5C7CC(C)(C)CC(O)C7(C)CCC56C)C4(C)CO)OC(C(=O)O)C(O)C3O)OC(CO)C(O)C2O)C(O)C(O)C1O (stereo not given) | 7.09
CN(C)CCc1ccc(O)cc1 | 2.05
O=c1c(O)c(-c2ccc(O)c(O)c2)oc2c(OC3OC(CO)C(O)C(O)C3O)c(O)cc(O)c12 (stereo not given) | 4.64
O=C(O)CC(=O)OCC1OC(Oc2c(-c3cc(O)c(O)cc3O)oc3cc(O)cc(O)c3c2=O)C(O)C(O)C1O (stereo not given) | 3.88

SMILES | LC retention time [min]
Cc1c(N)c(=O)n(-c2ccccc2)n1C | 2.76
O=C(C=Cc1ccc(O)cc1)NCCCCNCCCNC(=O)C=Cc1ccc(O)cc1 | 3.83
OCC1OC(OCC2OC(OCC3OC(OC4(CO)OC(CO)C(O)C4O)C(O)C(O)C3O)C(O)C(O)C2O)C(O)C(O)C1O (stereo not given) | 1.69
COc1cc(C=CNC(=O)C=Cc2ccc(O)c(OC)c2)ccc1O | 4.38
O=C(O)CC(=O)OCC1OC(Oc2ccc3c(=O)c(-c4ccc(O)cc4)coc3c2)C(O)C(O)C1O (stereo not given) | 4.1
COc1ccc2c(c1)OC1c3ccc(O)cc3OCC21 (stereo not given) | 5.92
COc1cc(O)c2c(=O)c(OC3OC(COC4OC(C)C(O)C(OC5OC(C)C(O)C(O)C5O)C4O)C(O)C(O)C3O)c(-c3ccc(O)c(O)c3)oc2c1 (stereo not given) | 4.79
O=C(C=Cc1ccc(O)cc1)NCCc1ccc(O)cc1 | 5.06
CC(CCC1C(CO)=CC(=O)CC1(C)C)OC1OC(CO)C(O)C(O)C1O (stereo not given) | 3.81
O=C1CC(c2ccc(O)cc2)Oc2cc(O)cc(O)c21 (stereo not given) | 5.95
CC(C)=CCC=C(C)C1CCC2(C)C1C(O)CC1C3(C)CCC(OC4OC(CO)C(O)C(O)C4OC4OC(CO)C(O)C(O)C4O)C(C)(C)C3CCC12C (stereo not given) | 9.63
CCc1nccc2c1[nH]c1ccccc12 | 4.01
CCC12C=CCN3CCc4c(n(c5ccccc45)C(O)(C(=O)OC)C1)C32 (stereo not given) | 4.26
C=CC1CN2CCc3c([nH]c4ccccc34)C2CC1C(=COC)C(=O)OC (stereo not given) | 5.68
COc1cccc2c(=O)c3ccoc3n(C)c12 | 5.59
O=c1[nH]c(=O)c2ncn(C3OC(CO)C(O)C3O)c2[nH]1 (stereo not given) | 2.07
COc1cc2c3cc1Oc1cc(ccc1O)CC1c4c(cc(OC)c(O)c4Oc4ccc(cc4)CC3N(C)CC2)CC[N+]1(C)C (stereo not given) | 3.41
COc1cc2ccc(=O)oc2c(OC)c1O | 4.28
CC1CCC2C(C)C3C(CC4C5CC=C6CC(O)CCC6(C)C5CCC43C)N2C1 (stereo not given) | 5.99
O=c1c(O)c(-c2ccc(O)cc2)oc2cc(O)cc(O)c12 | 6.01
